The text below walks through data of patent US9302999B2, “Substituted triazoles as herbicides” (E. I. DU PONT DE NEMOURS AND COMPANY, priority 2012, dated 2016).

Assay [1] deals with poinsettia, wild (wild poinsettia, Euphorbia heterophylla). Put plainly: Test E pre-/postemergence: poinsettia, wild. It counts as in vivo. Conditions: scale 0 to 100. An excerpt: (§1) Seeds of plant species selected from corn (Zea mays), soybean (Glycine max), velvetleaf (Abutilon theophrasti), lambsquarters (Chenopodium album), poinsettia, wild (wild poinsettia, Euphorbia heterophylla), pigweed, palmer (palmer pigweed, Amaranthus palmeri), waterhemp (common waterhemp, Amaranthus rudis), smartweed (ladysthumb smartweed, Polygonum persicaria), surinam grass (Brachiaria decumbens), crabgrass, large (large crabgrass, Digitaria sanguinalis), crabgrass, Brazil (Brazilian crabgrass, Digitaria horizontalis), panicum, fall (fall panicum, Panicum dichotomiflorum), foxtail, giant (giant foxtail, Setaria faberii), foxtail, green (green foxtail, Setaria viridis), goosegrass (Eleusine indica), johnsongrass (Sorghum halepense), ragweed (common ragweed, Ambrosia elation), barnyardgrass (Echinochloa crus-galli), sandbur (southern sandbur, Cenchrus echinatus), arrowleaf sida (Sida rhombifolia), ryegrass, Italian (Italian ryegrass, Lolium multiflorum), dayflower, (VA) (Virginia dayflower, Commelina virginica), field bindweed (Convolvulus arvensis), cocklebur (common cocklebur, Xanthium strumarium), morningglory (Ipomoea coccinea), nightshade (eastern black nightshade, Solanum ptycanthum), kochia (Kochia scoparia), nutsedge, yellow (yellow nutsedge, Cyperus esculentus) and beggarticks (hairy beggarticks, Bidens pilosa) were planted into a silt loam soil and treated preemergence with test chemicals formulated in a non-phytotoxic solvent mixture which included a surfactant. At the same time, plants selected from these crop and weed species were planted in pots containing a growing medium comprising spaghnum peat moss, vermiculite, wetting agent and starter nutrients and treated with postemergence applications of some of the test chemicals formulated in the same manner. Plants ranged in height from 2 to 18 cm for postemergence treatments (1- to 4-leaf stage).
(§2) Treated plants and controls were maintained in a greenhouse for 14 to 21 days, after which time all species were compared to controls and visually evaluated. Plant response ratings, summarized in Table E, are based on a scale of 0 to 100 where 0 is no effect and 100 is complete control. A dash (-) response means no test result.

In assay [2] the test system is corn (Zea mays). Description: Test E pre-/postemergence: corn. As to conditions: scale 0 to 100. It is filed as in vivo.
Source text: as §1, §2

For assay [3], the system named is ragweed (common ragweed, Ambrosia elation). Put plainly: Test E pre-/postemergence: ragweed. It counts as in vivo. As to conditions: Preemergence, scale 0 to 100.
Source text: as §1, §2

Assay [4] concerns lambsquarters (Chenopodium album). Description: Test F pre-/postemergence: lambsquarters. It counts as in vivo. As to conditions: Preemergence.
Source text: (§3) Seeds of plant species selected from corn (Zea mays), soybean (Glycine max), velvetleaf (Abutilon theophrasti), lambsquarters (Chenopodium album), poinsettia, wild (wild poinsettia, Euphorbia heterophylla), pigweed, palmer (palmer pigweed, Amaranthus palmeri), waterhemp (common waterhemp, Amaranthus rudis), surinam grass (Brachiaria decumbens), crabgrass, Brazil (Brazilian crabgrass, Digitaria horizontalis), panicum, fall (fall panicum Panicum dichotomiflorum), crabgrass, large (large crabgrass, Digitaria sanguinalis), foxtail, giant (giant foxtail, Setaria faberii), foxtail, green (green foxtail Setaria viridis), goosegrass (Eleusine indica), ragweed (common ragweed, Ambrosia elatior), barnyardgrass (Echinochloa crus-galli), sandbur (southern sandbur, Cenchrus echinatus), arrowleaf sida (Sida rhombifolia), ryegrass, Italian (Italian ryegrass, Lolium multiflorum), dayflower, VA (Virginia (VA) dayflower, Commelina virginica), field bindweed (Convolvulus arvensis), cocklebur (common cocklebur, Xanthium strumarium), morningglory (Ipomoea coccinea), nightshade (eastern black nightshade, Solanum ptycanthum), kochia (Kochia scoparia), nutsedge, yellow (yellow nutsedge, Cyperus esculentus), johnsongrass (Sorghum halepense), smartweed (ladysthumb smartweed, Polygonum persicaria), and beggarticks (hairy beggarticks, Bidens pilosa), were planted into a silt loam soil and treated preemergence with test chemicals formulated in a non-phytotoxic solvent mixture which included a surfactant. At the same time, plants selected from these crop and weed species and also pigweed (Amaranthus retroflexus), waterhemp_RES1 (ALS/Triazine resistant common waterhemp, Amaranthus rudis) and waterhemp_RES2 (ALS/HPPD resistant common waterhemp, Amaranthus rudis) were planted in pots containing a planting medium comprising spaghnum peat moss, vermiculite, wetting agent and starter nutrients treated with postemergence applications of some of the test chemicals formulated in the same manner. Plants ranged in height from 2 to 18 cm for postemergence treatments (1- to 4-leaf stage).
as §2

The subject of assay [5] is morningglory (Ipomoea coccinea). Description: Test F pre-/postemergence: morningglory. It counts as in vivo. As to conditions: Preemergence.
Source text: as §3, §2

Assay [6] deals with corn (Zea mays). Description: Test F pre-/postemergence: corn. It counts as in vivo.
Source text: as §3, §2

A further assay deals with Barnyardgrass. Description: Test C preemergence: barnyardgrass. It is filed as in vivo, Echinochloa crus-galli. An excerpt:
Seeds of plant species selected from blackgrass (Alopecurus myosuroides), bromegrass, downy (downy bromegrass, Bromus tectorum), foxtail, green (green foxtail, Setaria viridis), ryegrass, Italian (Italian ryegrass, Lolium multiflorum), winter wheat (Triticum aestivum), wild oat (Avena fatua), galium (catchweed bedstraw, Galium aparine), bermudagrass (Cynodon dactylon), surinam grass (Brachiaria decumbens), cocklebur (common cocklebur, Xanthium strumarium), corn (Zea mays), large crabgrass (Digitaria sanguinalis), woolly cupgrass (Eriochloa villosa), foxtail, giant (giant foxtail, Setaria faberii), goosegrass (Eleusine indica), johnsongrass (Sorghum halepense), kochia (Kochia scoparia), lambsquarters (Chenopodium album), morningglory (Ipomoea coccinea), nightshade (eastern black nightshade, Solanum ptycanthum), nutsedge, yellow (yellow nutsedge, Cyperus esculentus), pigweed (Amaranthus retroflexus), ragweed (common ragweed, Ambrosia elation), soybean (Glycine max), common (oilseed) sunflower (Helianthus annuus), Russian thistle (Salsola kali) and velvetleaf (Abutilon theophrasti) were planted into a blend of loam soil and sand and treated preemergence with test chemicals formulated in a non-phytotoxic solvent mixture which included a surfactant.
Treated plants and controls were maintained in a greenhouse for 13 to 15 days, after which time all species were compared to controls and visually evaluated. Plant response ratings, summarized in Table C, are based on a scale of 0 to 100 where 0 is no effect and 100 is complete control. A dash (-) response means no test result.

The mark [7] stands for this setting: 16 g ai/ha, scale 0 to 100 (0 no effect, 100 complete control).
Setting [8] is: 31 g ai/ha, scale 0 to 100 (0 no effect, 100 complete control).
The mark [9] stands for this setting: 31 g ai/ha, scale 0 (no effect) to 100 (complete control).
[10] abbreviates: 62 g ai/ha, scale of 0 to 100, 0 is no effect, 100 is complete control.
Where [11] appears, read: 125 g ai/ha, scale 0 to 100, 0 no effect, 100 complete control.

Turning to `Cc1nn(-c2ccc(F)cc2)nc1Cc1ccnc(C(F)(F)F)c1` [Compound 16, 4-[[2-(4-fluorophenyl)-5-methyl-2H-1,2,3-triazol-4-yl]methyl]-2-(trifluoromethyl)pyridine], the “Plant response rating: Poinsettia, Wild” value was 0 in assay [1] (Preemergence, 8 g ai/ha); 0 in assay [1] (Preemergence, 16 g ai/ha); 20 in assay [1] (Preemergence, 31 g ai/ha); 40 in assay [1] (Preemergence, 62 g ai/ha); 98 in assay [1] (Preemergence, 125 g ai/ha). Moreover, the “Plant response rating: Corn” value was 0 with corn (Zea mays) [2] (Preemergence, 8 g ai/ha); 0 in the assay with corn (Zea mays) [2] (Preemergence, 16 g ai/ha); 0 in the assay on corn (Zea mays) [2] (Preemergence, 31 g ai/ha); 20 in the assay on corn (Zea mays) [2] (Preemergence, 62 g ai/ha); 20 with corn (Zea mays) [2] (Preemergence, 125 g ai/ha). For the same compound, the “Plant response rating: Ragweed” value in assay [3] (8 g ai/ha) is given as 0; in assay [3] (16 g ai/ha), 0; in assay [3] (31 g ai/ha), 0; in assay [3] (62 g ai/ha) it was 30; in assay [3] (125 g ai/ha), 30.

Turning to `Cc1nn(-c2ccc(C(F)(F)F)cc2)nc1Cc1ccnc(C(F)(F)F)c1` [Compound 47, 4-[[5-methyl-2-[4-(trifluoromethyl)phenyl]-2H-1,2,3-triazol-4-yl]methyl]-2-(trifluoromethyl)pyridine], the “Plant response rating: Poinsettia, Wild” value in assay [1] (Postemergence, 250 g ai/ha) turned out to be 100; in assay [1] (Postemergence, 16 g ai/ha), 75; in assay [1] (Postemergence, 31 g ai/ha), 75; in assay [1] (Postemergence, 62 g ai/ha), 90; in assay [1] (Postemergence, 125 g ai/ha), 98; in assay [1] (Preemergence, 16 g ai/ha), 0. Further, the “Plant response rating: Poinsettia, Wild” value in assay [1] (Preemergence, 31 g ai/ha) worked out at 25; in assay [1] (Preemergence, 62 g ai/ha), 40; in assay [1] (Preemergence, 125 g ai/ha) it was 65; in assay [1] (Preemergence, 250 g ai/ha), 100. In addition, the “Plant response rating: Corn” value in the assay with corn (Zea mays) [2] (Postemergence, 250 g ai/ha) was 20; in the assay with corn (Zea mays) [2] (Postemergence, 16 g ai/ha), 10; in the assay with corn (Zea mays) [2] (Postemergence, 31 g ai/ha), 15; with corn (Zea mays) [2] (Postemergence, 62 g ai/ha), 20; in the assay on corn (Zea mays) [2] (Postemergence, 125 g ai/ha), 20; with corn (Zea mays) [2] (Preemergence, 16 g ai/ha), 0. Also, the “Plant response rating: Corn” value stood at 15 with corn (Zea mays) [2] (Preemergence, 31 g ai/ha); 20 in the assay with corn (Zea mays) [2] (Preemergence, 62 g ai/ha); 20 in the assay with corn (Zea mays) [2] (Preemergence, 125 g ai/ha); 25 in the assay on corn (Zea mays) [2] (Preemergence, 250 g ai/ha). The “Plant response rating: Ragweed” value in assay [3] (16 g ai/ha) stood at 0; in assay [3] (31 g ai/ha) it was 0; in assay [3] (62 g ai/ha) it was 10; in assay [3] (125 g ai/ha) it was 50; in assay [3] (250 g ai/ha), 90.

Regarding `Cc1nn(-c2ccc(F)cc2)nc1Oc1ccnc(C(F)(F)F)c1` [Compound 129, 4-[[2-(4-fluorophenyl)-5-methyl-2H-1,2,3-triazol-4-yl]oxy]-2-(trifluoromethyl)pyridine], the “Plant response rating: Poinsettia, Wild” value was found to be 0 in assay [1] (Preemergence, 8 g ai/ha); 0 in assay [1] (Preemergence, 16 g ai/ha); 0 in assay [1] (Preemergence, 31 g ai/ha); 0 in assay [1] (Preemergence, 62 g ai/ha); 25 in assay [1] (Preemergence, 125 g ai/ha). For the same compound, the “Plant response rating: Corn” value stood at 0 in the assay with corn (Zea mays) [2] (Preemergence, 8 g ai/ha); 0 with corn (Zea mays) [2] (Preemergence, 16 g ai/ha); 0 in the assay on corn (Zea mays) [2] (Preemergence, 31 g ai/ha); 10 in the assay with corn (Zea mays) [2] (Preemergence, 62 g ai/ha); 10 in the assay with corn (Zea mays) [2] (Preemergence, 125 g ai/ha). In addition, the “Plant response rating: Ragweed” value in assay [3] (8 g ai/ha) is listed as 0; in assay [3] (16 g ai/ha), 0; in assay [3] (31 g ai/ha), 5; in assay [3] (62 g ai/ha), 20; in assay [3] (125 g ai/ha), 20.

Take `Fc1ccc(-n2nc(Cc3ccnc(C(F)(F)F)c3)c(OCC(F)(F)F)n2)cc1` [Compound 142]: the “Plant response rating, Lambsquarters” value came out at 0 in assay [4] (setting [7]); 65 in assay [4] (setting [8]); 98 in assay [4] (62 g ai/ha, scale 0 to 100); 98 in assay [4] (125 g ai/ha, scale 0 to 100). The “Plant response rating, Morningglory” value came to 0 in assay [5] (setting [7]); 0 in assay [5] (setting [8]); 35 in assay [5] (125 g ai/ha, scale 0 to 100). Further, the “Plant response rating, Corn” value is on record as 0 in the assay on corn (Zea mays) [6] (Preemergence, 16 g ai/ha, scale 0 to 100 (0 no effect, 100 complete control)); 0 with corn (Zea mays) [6] (Preemergence, 31 g ai/ha, scale 0 to 100 (0 no effect, 100 complete control)); 0 in the assay with corn (Zea mays) [6] (Preemergence, 62 g ai/ha, scale 0 to 100); 0 with corn (Zea mays) [6] (Preemergence, 125 g ai/ha, scale 0 to 100).

On to `Cc1nn(-c2ccc(F)c(F)c2)nc1Oc1ccnc(C(F)(F)F)c1` [Compound 145], for which the “Plant response rating, Corn” value in the assay on corn (Zea mays) [6] (Postemergence, 8 g ai/ha, scale 0 to 100) is 5; in the assay on corn (Zea mays) [6] (Postemergence, 16 g ai/ha, scale 0 to 100) it was 10; with corn (Zea mays) [6] (Postemergence, 31 g ai/ha, scale 0 to 100), 10; in the assay with corn (Zea mays) [6] (Postemergence, 62 g ai/ha, scale 0 to 100) it was 10; in the assay with corn (Zea mays) [6] (Postemergence, 125 g ai/ha, scale 0 to 100) it was 10.

With `CCc1nn(-c2ccc(F)cc2)nc1Oc1ccnc(C(F)(F)F)c1` [Compound 166], the figures for the “Plant response rating, Barnyardgrass” value in the assay on Barnyardgrass (setting [9]), in the assay on Barnyardgrass (setting [10]) and with Barnyardgrass (setting [11]) were 5, 75 and 98, respectively.

Regarding `CCCc1nn(-c2ccc(C(F)(F)F)c(F)c2)nc1Oc1ccnc(C(F)(F)F)c1` [Compound 185], the “Plant response rating, Barnyardgrass” value came to 55 in the assay with Barnyardgrass (setting [9]), 98 in the assay with Barnyardgrass (setting [10]) and 100 with Barnyardgrass (setting [11]).

Take `CCOc1nn(-c2ccc(Br)cc2)nc1Cc1ccnc(C(F)(F)F)c1` [Compound 189]: the “Plant response rating, Barnyardgrass” value is given as 25 with Barnyardgrass (16 g ai/ha, scale 0 (no effect) to 100 (complete control)); 45 in the assay with Barnyardgrass (setting [9]); 98 in the assay with Barnyardgrass (setting [10]); 100 in the assay on Barnyardgrass (setting [11]).
